Assay results reported in publication PMC8343220, “The selectivity of α‐adrenoceptor agonists for the human α1A, α1B, and α1D‐adrenoceptors” (Pharmacology Research & Perspectives, 2021).
Where two headings read alike, the source gives them in different places.

Experiments:
[1] = target: T1, human α1D‐adrenoceptor (full length) (Homo sapiens, UniProt P25100); experiment: ERK1/2‐phosphorylation (Surefire Alphascreen), CHO‐α1D cells; assay type: cell-based
T1 construct: human α1D‐adrenoceptor (full length) were used; expressed in transfected cells; host or cells: CHO-K1
T1 sequence (P25100 1-572): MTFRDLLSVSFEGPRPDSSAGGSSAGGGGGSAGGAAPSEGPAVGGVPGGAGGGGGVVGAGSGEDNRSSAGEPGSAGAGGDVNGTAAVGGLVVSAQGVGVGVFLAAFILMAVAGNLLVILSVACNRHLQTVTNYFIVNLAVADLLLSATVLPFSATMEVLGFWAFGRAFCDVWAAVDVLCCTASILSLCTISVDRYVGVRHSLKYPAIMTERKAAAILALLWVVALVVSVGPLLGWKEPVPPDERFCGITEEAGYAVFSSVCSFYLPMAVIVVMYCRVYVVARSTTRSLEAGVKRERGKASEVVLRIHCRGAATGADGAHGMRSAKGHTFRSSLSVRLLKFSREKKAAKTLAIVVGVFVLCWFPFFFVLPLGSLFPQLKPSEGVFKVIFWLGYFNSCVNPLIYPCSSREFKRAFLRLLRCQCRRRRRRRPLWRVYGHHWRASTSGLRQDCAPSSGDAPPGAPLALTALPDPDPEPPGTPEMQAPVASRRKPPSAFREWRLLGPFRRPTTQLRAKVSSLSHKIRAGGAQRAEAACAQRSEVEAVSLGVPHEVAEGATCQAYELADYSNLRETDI

human α1A‐adrenoceptor [2] = target: T2, human α1A‐adrenoceptor (Homo sapiens, UniProt P35348); experiment: Intracellular free calcium mobilization, CHO‐α1A cells; assay type: cell-based
T2 construct: expressed in transfected cells; host or cells: CHO-K1
T2 sequence (P35348 1-466): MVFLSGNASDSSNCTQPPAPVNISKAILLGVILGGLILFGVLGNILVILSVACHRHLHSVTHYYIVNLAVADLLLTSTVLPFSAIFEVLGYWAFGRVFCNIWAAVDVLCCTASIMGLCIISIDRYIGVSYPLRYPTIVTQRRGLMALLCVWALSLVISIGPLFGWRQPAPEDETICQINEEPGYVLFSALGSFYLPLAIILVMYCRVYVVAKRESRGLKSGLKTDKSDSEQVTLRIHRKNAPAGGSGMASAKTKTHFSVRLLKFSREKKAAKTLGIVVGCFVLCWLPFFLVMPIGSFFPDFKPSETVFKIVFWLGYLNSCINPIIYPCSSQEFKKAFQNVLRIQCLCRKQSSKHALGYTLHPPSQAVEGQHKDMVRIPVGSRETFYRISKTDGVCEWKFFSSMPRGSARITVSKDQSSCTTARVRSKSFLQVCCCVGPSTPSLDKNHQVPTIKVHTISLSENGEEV

[3] = system: parental CHO cell line without any transfected receptors; experiment: ERK1/2‐phosphorylation, parent CHO cells without transfected receptors; assay type: cell-based, Chinese hamster
human α1A‐adrenoceptor [4] = target: T2, human α1A‐adrenoceptor; experiment: ^3H‐cAMP accumulation, CHO‐α1A cells; assay type: cell-based; conditions: CHO‐α1A cells; for cAMP accumulation % forskolin: % of 10 µM forskolin response
[5] = system: parental CHO cell line without any transfected receptors; experiment: Forskolin‐stimulated cAMP accumulation, parent CHO cells without transfected receptors; assay type: cell-based, Chinese hamster
human α1A‐adrenoceptor [6] = target: T2, human α1A‐adrenoceptor; experiment: ERK1/2‐phosphorylation (Surefire Alphascreen), CHO‐α1A cells; assay type: cell-based
[7] = system: parental CHO cell line without any transfected receptors; experiment: Intracellular calcium mobilization, parent CHO cells without transfected receptors; assay type: cell-based, Chinese hamster; conditions: Cricetulus griseus; CHO cells without transfected receptors; response at maximum concentration used (c2), as % of ionomycin (10μM) response; mean ± s.e.m.; read-out: Intracellular calcium release % ionomycin
[8] = target: T1, human α1D‐adrenoceptor (full length); experiment: ^3H‐cAMP accumulation in the presence of 10 μM forskolin, CHO‐α1D cells; assay type: cell-based; conditions: for Effect on cAMP accumulation in the presence of forskolin, CHO‐α1D cells: not α1‐mediated
[9] = target: T1, human α1D‐adrenoceptor (full length); experiment: Intracellular free calcium mobilization, CHO‐α1D cells; assay type: cell-based
human α1B‐adrenoceptor [10] = target: T3, human α1B‐adrenoceptor (Homo sapiens, UniProt P35368); experiment: ^3H‐prazosin whole‐cell radioligand binding, CHO‐α1B cells
T3 construct: expressed in transfected cells; host or cells: CHO-K1
T3 sequence (P35368 1-520): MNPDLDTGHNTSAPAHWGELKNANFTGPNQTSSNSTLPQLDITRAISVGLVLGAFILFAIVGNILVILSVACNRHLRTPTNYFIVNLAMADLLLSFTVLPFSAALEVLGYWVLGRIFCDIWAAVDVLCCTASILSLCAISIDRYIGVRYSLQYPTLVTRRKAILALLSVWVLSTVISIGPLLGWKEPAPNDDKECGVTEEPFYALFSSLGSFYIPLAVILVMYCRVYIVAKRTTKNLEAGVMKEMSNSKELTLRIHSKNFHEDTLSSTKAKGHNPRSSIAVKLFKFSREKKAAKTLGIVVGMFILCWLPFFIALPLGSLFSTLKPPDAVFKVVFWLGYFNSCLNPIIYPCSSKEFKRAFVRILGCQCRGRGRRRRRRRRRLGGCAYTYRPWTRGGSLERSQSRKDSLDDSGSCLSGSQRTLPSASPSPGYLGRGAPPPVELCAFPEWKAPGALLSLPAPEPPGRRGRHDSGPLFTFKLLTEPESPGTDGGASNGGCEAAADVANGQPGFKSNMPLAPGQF

human α1B‐adrenoceptor [11] = target: T3, human α1B‐adrenoceptor; experiment: ^3H‐cAMP accumulation, CHO‐α1B cells; assay type: cell-based; conditions: CHO‐α1B cells; for cAMP accumulation % forskolin: % forskolin maximum response; for EC50: read-out: cAMP accumulation Log EC50 (converted)
human α1B‐adrenoceptor [12] = target: T3, human α1B‐adrenoceptor; experiment: ERK1/2‐phosphorylation (Surefire Alphascreen), CHO‐α1B cells; assay type: cell-based
[13] = target: T1, human α1D‐adrenoceptor (full length); experiment: ^3H‐prazosin whole‐cell radioligand binding, CHO‐α1D cells
human α1B‐adrenoceptor [14] = target: T3, human α1B‐adrenoceptor; experiment: ^3H‐cAMP accumulation in the presence of 10 μM forskolin, CHO‐α1B cells; assay type: cell-based; conditions: CHO‐α1B cells; for EC50: in presence of forskolin, read-out: cAMP accumulation (in presence of forskolin) Log EC50 (converted)
human α1B‐adrenoceptor [15] = target: T3, human α1B‐adrenoceptor; experiment: Intracellular free calcium mobilization, CHO‐α1B cells; assay type: cell-based
human α1A‐adrenoceptor [16] = target: T2, human α1A‐adrenoceptor; experiment: ^3H‐prazosin whole‐cell radioligand binding, CHO‐α1A cells
human α1A‐adrenoceptor [17] = target: T2, human α1A‐adrenoceptor; experiment: ^3H‐cAMP accumulation in the presence of 10 μM forskolin, CHO‐α1A cells; assay type: cell-based; conditions: CHO‐α1A cells
[18] = read-out: ERK1/2‐phosphorylation Log EC50 (converted)
[19] = read-out: Intracellular calcium release Log EC50 (converted)
[20] = fold increase of the forskolin response

Cc1cc(C(C)(C)C)c(O)c(C)c1CC1=NCCN1 [Oxymethazoline]
ERK1/2‐phosphorylation % PDBu ([1]; CHO‐α1D cells, maximal response as % of PDBu): 48.6 ± 5.4%
Intracellular calcium release % ionomycin (human α1A‐adrenoceptor [2]; CHO‐α1A cells, maximal response as % of 10 µM ionomycin): 54.5 ± 2.5%
Emax ([3]; Cricetulus griseus, CHO cells without transfected receptors, maximal response as % of PDBu (10μM) response, mean ± s.e.m., read-out: ERK1/2-phosphorylation % PDBu): 46.7 ± 6%
EC50 ([3]; Cricetulus griseus, CHO cells without transfected receptors, mean ± s.e.m., read-out: ERK1/2-phosphorylation Log EC50 (converted)): 11 nM
ERK1/2‐phosphorylation response in parent CHO cells ([3]; untransfected cells): stimulated ERK1/2‐phosphorylation responses
cAMP accumulation % forskolin (human α1A‐adrenoceptor [4]): 43.9 ± 5.2%
% inhibition of forskolin-stimulated cAMP ([5]; CHO cells without transfected receptors, footnote *: % inhibition): 18.1 ± 2.2%
IC50 ([5]; Cricetulus griseus, CHO cells without transfected receptors, footnote *: log IC50, read-out: log IC50, decrease in forskolin-stimulated cAMP accumulation (converted)): 19.5 nM
Effect on cAMP accumulation in the presence of forskolin, parent cells ([5]; untransfected cells): decrease in cAMP accumulation
ERK1/2‐phosphorylation % PDBu (human α1A‐adrenoceptor [6]; CHO‐α1A cells, % of 10 µM PDBu, ^a bi‐phasic: initial stimulatory part): 92.8 ± 2.7%
Emax [7]: 3.1 ± 0.9%
% inhibition of forskolin‐stimulated cAMP ([8]; CHO‐α1D cells, decrease in forskolin‐stimulated cAMP accumulation (footnote b)): *28.7 ± 2.9%
Effect on cAMP accumulation in the presence of forskolin, CHO‐α1D cells ([8]; listed as Oxymetazoline): decrease in cAMP accumulation
Effect on cAMP accumulation in the presence of forskolin, CHO‐α1D cells ([8]; listed as oxymetazoline): inhibitory cAMP response
Intracellular calcium release % ionomycin ([9]; CHO‐α1D cells, maximal response as % of 10 µM ionomycin): 7.6 ± 1.0%

Clc1cccc(Cl)c1N=C1NCCN1 [Clonidine]
ERK1/2‐phosphorylation % PDBu at 100 µM [1]: 6.1 ± 1.3%
Kd (human α1B‐adrenoceptor [10]; Log KD α1B, ^3H‐prazosin whole cell binding, CHO‐α1B cells, given as log KD (negative), mean ± SEM): 7410 nM
Kd (human α1B‐adrenoceptor [10]; Log KD, ^3H‐prazosin binding, CHO‐α1B cells, whole‐cell binding (from Table 1), given as log KD (negative numbers)): 7410 nM
Intracellular calcium release % ionomycin (human α1A‐adrenoceptor [2]): 51.6 ± 1.2%
cAMP accumulation % forskolin (human α1B‐adrenoceptor [11]): 7.5 ± 0.8%
EC50 (human α1B‐adrenoceptor [11]): 251 nM
ERK1/2‐phosphorylation % PDBu (human α1B‐adrenoceptor [12]): 60.6 ± 7.6%
EC50 (human α1B‐adrenoceptor [12]; ERK1/2‐phosphorylation Log EC50, CHO‐α1B cells, for bi‐phasic responses the initial stimulatory part): 89.1 nM
ERK1/2-phosphorylation % PDBu ([3]; CHO cells without transfected receptors, maximal response as % of PDBu (10μM) response, mean ± s.e.m.): No response
Kd ([13]; 3H‐prazosin binding Log KD, CHO‐α1D cells, whole‐cell binding (from Table 1), log values given negative): 2570 nM
Kd ([13]; Log KD α1D, ^3H‐prazosin whole cell binding, CHO‐α1D cells, given as log KD (negative), mean ± SEM, 'early plateau' = specific binding not fully inhibited): 2570 nM
cAMP accumulation % forskolin (human α1A‐adrenoceptor [4]): 33.8 ± 3.2%
cAMP accumulation (in presence of forskolin) Log EC50 ([5]; CHO cells without transfected receptors, in presence of forskolin): No response
ERK1/2‐phosphorylation % PDBu (human α1A‐adrenoceptor [6]): 85.7 ± 4.7%
Emax [7]: 1.6 ± 1%
EC50 (human α1B‐adrenoceptor [14]): 44.7 nM
Intracellular calcium release % ionomycin (human α1B‐adrenoceptor [15]): 45.4 ± 2.1%
EC50 (human α1B‐adrenoceptor [15]; Intracellular calcium release Log EC50, CHO‐α1B cells, given as log EC50 (negative numbers)): 17 nM
Intracellular calcium release % Ionomycin at 100 µM [9]: 8.0 ± 0.5%

Cc1cccc(C(C)c2cnc[nH]2)c1C (stereo not drawn) [Medetomidine]
ERK1/2‐phosphorylation % PDBu [1]: 22.6 ± 5.1%
EC50 [1, 18]: 7240 nM
Kd (human α1B‐adrenoceptor [10]; Log KD α1B, ^3H‐prazosin whole cell binding): 14500 nM
Kd (human α1B‐adrenoceptor [10]; Log KD, ^3H‐prazosin binding): 14500 nM
Intracellular calcium release % ionomycin (human α1A‐adrenoceptor [2]): 57.2 ± 1.8%
Log efficacy ratio KD /EC50 (human α1A‐adrenoceptor [2]): 2.06
EC50 (human α1A‐adrenoceptor [2]; [19]): 20.4 nM
cAMP accumulation % forskolin (human α1B‐adrenoceptor [11]): 4.6 ± 0.9%
EC50 (human α1B‐adrenoceptor [11]): 115 nM
ERK1/2‐phosphorylation % PDBu (human α1B‐adrenoceptor [12]): 55.2 ± 5.3%
EC50 (human α1B‐adrenoceptor [12]; [18]): 138 nM
Emax at 100 µM ([3]; Cricetulus griseus, CHO, read-out: ERK1/2-phosphorylation % PDBu at 100μM): 7.9 ± 3.8%
Affinity selectivity ratio α1A vs α1D [13]: 1.1 fold
Affinity selectivity ratio α1B vs α1D [13]: 6.8 fold
Kd ([13]; 3H‐prazosin binding Log KD): 2140 nM
Kd ([13]; Log KD α1D, ^3H‐prazosin whole cell binding): 2140 nM
EC50 (human α1A‐adrenoceptor [4]; 5 h, read-out: cAMP accumulation Log EC50 (converted)): 646 nM
cAMP accumulation % forskolin (human α1A‐adrenoceptor [4]): 46.3 ± 5.2%
cAMP accumulation (in presence of forskolin) % forskolin-stim cAMP at 100μM ([5]; CHO cells without transfected receptors, response at 100μM only, EC50 not obtainable, % of forskolin-stimulated cAMP): 88.4 ± 3.2%
ERK1/2‐phosphorylation % PDBu (human α1A‐adrenoceptor [6]): 85.8 ± 3.3%
EC50 (human α1A‐adrenoceptor [6]; [18]): 31.6 nM
Affinity selectivity ratio α1A vs α1B (human α1A‐adrenoceptor [16]): 6.2 fold
Kd (human α1A‐adrenoceptor [16]; Log KD α1A, ^3H‐prazosin whole cell binding): 2340 nM
Emax [7]: 11.7 ± 2.4%
cAMP accumulation (in presence of forskolin) Fold increase (human α1B‐adrenoceptor [14]; [20]): 1.52 ± 0.04 fold
EC50 (human α1B‐adrenoceptor [14]): 93.3 nM
Intracellular calcium release % ionomycin (human α1B‐adrenoceptor [15]): 43.0 ± 3.4%
Log efficacy ratio KD /EC50 (human α1B‐adrenoceptor [15]): 2.09
EC50 (human α1B‐adrenoceptor [15]; [19]): 117 nM
EC50 (human α1A‐adrenoceptor [17]; 10 μM forskolin, read-out: cAMP accumulation (in presence of forskolin) Log EC50 (converted)): 126 nM
cAMP accumulation (in presence of forskolin) Fold increase (human α1A‐adrenoceptor [17]; [20]): 2.12 ± 0.09 fold
Intracellular calcium release % Ionomycin at 100 µM [9]: 11.5 ± 2.3%
